Data taken from patent US20240108634A1, “COMPOSITIONS AND METHODS FOR INHIBITING YAP” (The United States Government as represented by the …, priority 2021, published 2024).

Tests used:
[1] = tested on: YAP localization; experiment: YAP cytoplasmic/nuclear localization (cell fractionation and immunofluorescence); type: cell-based, human; details: 50 nM, 6 h
Procedure: Levels of total YAP were determined via ELISA. […] Immunoprecipitates were immunoblotted for the indicated proteins. […] Cells were treated with the indicated concentrations of inhibitor for 18 h and mRNA extracted for real time RT-PCR analyses. Measurements were performed in quadruplicate and means and+S.D. are shown. […] […] Cytoplasmic versus nuclear material was subsequently immunoblotted for the indicated proteins. […] Values in top right corner of panels correspond to the percentage of nuclear localized YAP. Cells were grown on coverslips and treated with NSC682769. Cells were permeabilized and stained using primary antibody to YAP1 and FITC-conjugated secondary. Nuclei were stained with DAPI. Scale bar, 20 μm.
Surface plasmon resonance (SPR), ELISA, YAP-TEAD reporter activity, cellular fractionation, and immunofluorescence analyses. SPR experiments were carried out on a Nicoya OpenSPR™ instrument using immobilized YAP on a carboxyl-coated sensor. Binding was observed as the change in response units (RU) as analyte was injected at a flow rate of 10 μl/min at 25° C. TraceDrawer™ was used for kinetic analyses. The PathScan® total-YAP ELISA kit was obtained from Cell Signaling and used according to the manufacturer's instructions. YAP-TEAD reporter activity was determined as previously described (Kim N G, Gumbiner B M (2015) J Cell Biol 210: 503-515). HOP-flash contains multiple copies of wild-type TEAD-binding sites with a minimal promoter upstream of a luciferase reporter gene. Luciferase activity was measured via a luciferase assay system (Promega). Nuclear-cytoplasmic fractionation was performed according to Dignam et al. (Dignam J D, et al. (1983) Nucleic Acids Res 11: 1475-1489). Briefly, the buffers used were kept on ice and centrifugations were done at 4° C. with soft braking. After a single wash with PBS, cells were scraped with PBS (containing 1 mM DTT and 1× protease inhibitor) and harvested by centrifugation at 1000×g for 15 min. […] Cell lysis was monitored by trypan blue staining. […]

[2] = tested on: LN229 and GBM39 cells; experiment: Soft agar colony formation (anchorage-independent growth); type: cell-based, human; details: LN229 and GBM39, 14 days
Description: Cells were layered in soft agar to evaluate anchorage-independent growth in the presence of the indicated concentrations of inhibitor and colonies counted following 14 days of growth. Representative crystal violet stained images are shown below. Data represent mean+S.D. of three independent experiments. […] Cells were placed in Boyden chambers and allowed to migrate towards BSA (white bars), vitronectin (light yellow bars), or fibronectin (dark yellow bars) (*, P<0.05; n=3). […] Representative crystal violet stained images are shown (200×). Data represent mean+S.D. of three independent experiments. […] Graphical data shown below represent mean+S.D. (late apoptosis; annexin V-positive, PI-positive) of three independent experiments.
Cell proliferation, clonogenic, migration, invasion and apoptosis assays. Cell proliferation was determined via Cell Titer-Glo® luminescent cell assays (Promega). Clonogenic assays were done by plating a total of 1,000 cells per well in 24-well plates in a total volume of 400 μL using a two-layered soft agar system as previously described (Masri J, et al. (2007) Cancer Res 67: 11712-11720). Cell migration assays were conducted using precoated modified Boyden chambers as previously described (Benavides-Serrato A, et al. (2017) PLoS One 12: e0176599). […]

COc1ccc(-c2cc(-c3ccccc3)nc3c2CC(=O)Nc2ccccc2-3)cc1OC [NSC682769]
Relative amount of nuclear YAP (immunofluorescence) ([1]; GBM39 cells, untreated 53%): 19% | Relative amount of nuclear YAP (immunofluorescence) ([1]; LN229 cells, untreated 67%): 26% | Nuclear versus cytoplasmic YAP by cell fractionation ([1]; LN229 or GBM39 cells): reduction of nuclear YAP and a concomitant accumulation of cytoplasmic YAP | Clonogenic growth in soft agar [2]: inhibited
